Where two headings read alike, the source gives them in different places.
Key:
[1] = parameters: method as in Chen et al., [2014]; conditions: rats; ref Chen et al., [2014]; cited from earlier work
[2] = parameters: method as in unpublished; conditions: ref unpublished, cited from earlier work
[3] = Food-effect two-period crossover trial: plasma pharmacokinetics after a single 200 mg oral dose of Ginsenoside CK Tablets; format: in vivo, human; conditions: for Tmax: median (range)
Experimental: The food-effect trial was an open-label, randomized, two-period, two-treatment crossover trial, carried out from 15 January to 31 March 2015. Subjects (n = 24) were admitted to the clinical facility (Center of Clinical Pharmacology, the Third Xiangya Hospital, Central South University, Changsha, China) and randomized to receive a single 200 mg oral dose of Ginsenoside CK Tablets (4 × 50 mg tablets) either after a 10 h-fasting period or within 30 min after beginning the consumption of a recommended high-fat, high calorie breakfast (150 calories of protein, 250 calories of carbohydrates, 500 to 600 calories of fat; total calories approximately 800–1,000). Tablets were administered with 250 mL of water, to each subject, in each treatment period. Drinking was prohibited for 2 h before and after medication. Apart from this, the amount and time of drinking were not strictly controlled. Subjects had unified, standard meals 4 and 10 h after drug administration. The alternate treatment was conducted after a 14-day washout period.
Serial blood samples (5 mL) for PK assessment were collected from an indwelling catheter or by direct venipuncture prior to the administration (t = 0) and 0.25, 0.5, 1, 1.5, 2, 2.5, 3, 3.5, 4, 5, 6, 8, 12, 24, 36, 48, 72, and 96 h after the administration of ginsenoside CK. We inferred that these sampling times were sufficient for this trial, based on international guidelines (FDA, [2003]; CFDA, [2005]) and our previous results, since the sampling time is longer than at least three terminal half-lives of the drug. Additionally, the mean plasma concentrations of both CK and 20(S)-PPD at 96 h were considerably <1/20 of their Cmax even when the single oral dose at 800 mg (unpublished). Plasma was separated in blood collection tubes by centrifugation (3,000 rpm, 10 min) at 4°C within 1 h after sampling, transferred to labeled storage tubes and stored at −70°C pending workup and analysis.
Descriptive statistics of PK parameters were calculated using established non-compartmental methods, utilizing the WinNonLin version 6.1 software (Pharsight Corporation, USA). The PK parameters determined for each participant included apparent terminal half-life (t1/2), maximum plasma concentration (Cmax), time to Cmax (tmax), area under the plasma concentration-time curve from the time of administration up to the last time point with a measurable concentration post-dose (AUClast), AUC extrapolated to infinity (AUCinf), apparent volume of distribution (V/F), apparent plasma clearance (CL/F) after extravascular administration, mean residence time (MRTlast and MRTinf), and the cumulative excretion rate from urine. The t1/2 was estimated as (ln2)/K, where K represented the slope of the terminal phase of plasma concentration-time profile and was assessed with a weighting factor of 1, using least squares (log-linear regression of at least three data points). The Cmax and tmax were obtained from experimental observations. The values of AUC were calculated using conventional trapezoidal and log-trapezoidal methods and the extrapolated area (Rowland and Tozer, [1995]). CL/F and V/F were calculated as dose/AUCinf and (CL/F)/K, respectively. MRT was calculated as MRT = AUMC/AUC, where AUMC is the area under the first moment curve. The cumulative excretion rate was calculated as the amount of unchanged drug over a time interval in the urine divided by dose, and was expressed as a percentage.
All samples were detected using a LC-MS/MS (API 4000, ABI Company, USA) method, validated at the Institute of Clinical Pharmacology, Central South University (Changsha, China). Concentrations of CK and 20(S)-PPD were measured using a triple quadrupole tandem mass spectrometer in multiple reaction monitoring (MRM) mode, via a positive electrospray ionization source at m/z 621.4→ 160.8 for the CK and m/z 461.5→425.3 for 20(S)-PPD, with a dwell time of 200 ms. […]

[4] = both sexes, human, plasma, po, 200 mg, single oral 200 mg CK, FO, all subjects
[5] = female, human, plasma, po, 200 mg, single oral 200 mg CK, FO
[6] = female, human, plasma, po, 200 mg, single oral 200 mg CK, HF
[7] = geometric mean ratio FO vs. HF, n = 24
[8] = human, plasma, po, 200 mg, single oral 200 mg CK, FO, all subjects
[9] = human, plasma, po, 200 mg, single oral 200 mg CK, HF, all subjects
[10] = male, human, plasma, po, 200 mg, single oral 200 mg CK, FO
[11] = male, human, plasma, po, 200 mg, single oral 200 mg CK, HF
[12] = plasma, single oral 200 mg CK, FO, female
[13] = plasma, single oral 200 mg CK, FO, male
[14] = plasma, single oral 200 mg CK, HF, male
[15] = single oral 200 mg CK, FO, all subjects
[16] = single oral 200 mg CK, FO, female
[17] = single oral 200 mg CK, FO, male
[18] = single oral 200 mg CK, HF, all subjects
[19] = single oral 200 mg CK, HF, female
[20] = single oral 200 mg CK, HF, male

CC(C)=CCCC(C)(OC1OC(CO)C(O)C(O)C1O)C1CCC2(C)C1C(O)CC1C3(C)CCC(O)C(C)(C)C3CCC12C [CK, 20-O-beta-D-glucopyranosyl-20(S)-protopanaxadiol]
Dose exhibiting initial anti-inflammatory activity [1]: 10 mg/kg
Effects on vital signs, laboratory tests or 12-lead ECG ([2]; dose range 100–400 mg): no significant effects
Dose range over which exposure increased linearly ([2]; previous clinical trial): 100 to 400 mg
Mean plasma concentration at 96 h as fraction of Cmax ([2]; single oral dose at 800 mg): < 1/20
Increase of Cmax, AUClast and AUCinf after HF meal compared to the FO condition ([3]; 24 subjects): about 2 fold
lgAUClast GMR (90%CI) ([3]; FO vs. HF (Female), n = 12): 0.38 (0.28–0.53)
lgCmax GMR (90%CI) ([3]; FO vs. HF (Female), n = 12): 0.45 (0.33–0.62)
lgAUClast GMR (90%CI) ([3]; FO vs. HF (Male), n = 12): 0.49 (0.42–0.57)
lgCmax GMR (90%CI) ([3]; FO vs. HF (Male), n = 12): 0.55 (0.46–0.65)
lgAUClast GMR (90%CI) ([3]; M vs. F (FO), n = 12): 0.74 (0.54–1.02)
lgCmax GMR (90%CI) ([3]; M vs. F (FO), n = 12): 0.77 (0.57–1.04)
lgAUClast GMR (90%CI) ([3]; M vs. F (HF), n = 12): 0.59 (0.46–0.75)
lgCmax GMR (90%CI) ([3]; M vs. F (HF), n = 12): 0.64 (0.46–0.88)
Subjects having measurable CK concentrations at 0.25 h after administration ([3]; after a meal, 20 of 24 subjects): 83%
half-life ([3]; both sexes, human, plasma, oral, 200 mg, FO and HF, male and female groups, read-out: mean t1/2, range over all treatments): 24 to 28.4 h
AUC(0-inf) [3, 4]: 5880 ng·h/mL
AUC(0-t) [3, 4]: 5750 ng·h/mL
AUC(0-t) ([3]; both sexes, human, plasma, po, 200 mg, single oral 200 mg CK, HF, all subjects): 12600 ng·h/mL
Tmax [3, 5]: 3.8 h
Cmax ([3]; female, human, plasma, po, 200 mg, plasma, single oral 200 mg CK, FO, female, read-out: Cmax): 921 ± 505 ng/mL
half-life ([3]; female, human, plasma, po, 200 mg, plasma, single oral 200 mg CK, FO, female, read-out: t1/2 (converted)): 26.9 ± 5.4 h
Cmax ([3]; female, human, plasma, po, 200 mg, plasma, single oral 200 mg CK, HF, female, read-out: Cmax): 1840 ng/mL
half-life ([3]; female, human, plasma, po, 200 mg, plasma, single oral 200 mg CK, HF, female, read-out: t1/2 (converted)): 25.6 ± 3.5 h
MRT inf [3, 5]: 14.5 ± 2.1 h
MRT last [3, 5]: 11.6 ± 1 h
MRT inf [3, 6]: 14.6 ± 1.5 h
MRT last [3, 6]: 12.2 ± 1 h
AUC(0-inf) [3, 5]: 6900 ng·h/mL
AUC(0-t) [3, 5]: 6750 ng·h/mL
AUC(0-inf) [3, 6]: 15900 ng·h/mL
AUC(0-t) [3, 6]: 15600 ng·h/mL
lgAUClast GMR (90%CI) [3, 7]: 0.43 (0.36–0.51)
lgCmax GMR (90%CI) [3, 7]: 0.50 (0.42–0.59)
Tmax [3, 8]: 3.6 h
half-life ([3]; human, plasma, po, 200 mg, plasma, single oral 200 mg CK, FO (fasting overnight), all subjects, read-out: t1/2 (converted)): 27.7 ± 7.9 h
Cmax ([3]; human, plasma, po, 200 mg, plasma, single oral 200 mg CK, FO, all subjects, read-out: Cmax): 797 ± 406 ng/mL
half-life ([3]; human, plasma, po, 200 mg, plasma, single oral 200 mg CK, HF (high-fat meal), all subjects, read-out: t1/2 (converted)): 24.8 ± 3 h
Cmax ([3]; human, plasma, po, 200 mg, plasma, single oral 200 mg CK, HF, all subjects, read-out: Cmax): 1570 ng/mL
MRT inf [3, 8]: 15.1 ± 4.3 h
MRT last [3, 8]: 11.7 ± 1.2 h
MRT inf [3, 9]: 14.6 ± 1.7 h
MRT last [3, 9]: 12.3 ± 1.2 h
Tmax [3, 10]: 3.4 h
Cmax ([3]; male, human, plasma, po, 200 mg, plasma, single oral 200 mg CK, FO, male, read-out: Cmax): 672 ± 236 ng/mL
half-life ([3]; male, human, plasma, po, 200 mg, plasma, single oral 200 mg CK, FO, male, read-out: t1/2 (converted)): 28.4 ± 10 h
Cmax ([3]; male, human, plasma, po, 200 mg, plasma, single oral 200 mg CK, HF, male, read-out: Cmax): 1300 ng/mL
half-life ([3]; male, human, plasma, po, 200 mg, plasma, single oral 200 mg CK, HF, male, read-out: t1/2 (converted)): 24 ± 2.4 h
MRT inf [3, 10]: 15.7 ± 5.7 h
MRT last [3, 10]: 11.9 ± 1.3 h
MRT inf [3, 11]: 14.5 ± 1.9 h
MRT last [3, 11]: 12.4 ± 1.4 h
AUC(0-inf) [3, 10]: 4860 ng·h/mL
AUC(0-t) [3, 10]: 4750 ng·h/mL
AUC(0-inf) [3, 11]: 9810 ng·h/mL
AUC(0-t) [3, 11]: 9630 ng·h/mL
AUClast [3, 12]: 6,747.5 ± 3,408.7 h·ng·ml^−1
Cmax [3, 12]: 921.4 ± 505.1 ng/mL
AUCinf [3, 13]: 4,857.1 ± 1,723.2 h·ng·ml^−1
AUClast [3, 13]: 4,749.9 ± 1,718.1 h·ng·ml^−1
Cmax [3, 13]: 672.2 ± 235.8 ng/mL
Cmax ([3]; plasma, single oral 200 mg CK, HF, female): 1,838.6 ± 404.4 ng·ml^−1
AUClast [3, 14]: 9,633.1 ± 3,313.5 h·ng·ml^−1
Cmax [3, 14]: 1,302.0 ± 632.9 ng·ml^−1
CL/F [3, 15]: 43.4 ± 24.2 L/h
V/F [3, 15]: 1,875 ± 1,899 L
CL/F [3, 16]: 38.0 ± 21.8 L/h
V/F [3, 16]: 1,427 ± 699 L
CL/F [3, 17]: 48.8 ± 26.3 L/h
V/F [3, 17]: 2,323 ± 2,572 L
CL/F [3, 18]: 18.2 ± 9.8 L/h
V/F [3, 18]: 652 ± 381 L
CL/F [3, 19]: 12.8 ± 1.8 L/h
V/F [3, 19]: 477 ± 109 L
CL/F [3, 20]: 23.6 ± 11.6 L/h
V/F [3, 20]: 828 ± 475 L

— PMC5602130, “Food and Sex-Related Impacts on the Pharmacokinetics of a Single-Dose of Ginsenoside Compound K in Healthy Subjects” (Frontiers in Pharmacology, 2017)
